Article PMC3480206 (Future microbiology, 2012)
Like-named read-outs stand apart in the source and are kept apart here.

Assays:
[1] = system: Mycobacterium tuberculosis H37Rv; assay: In vitro drug interaction, checkerboard titration by 96-well microdilution; format: cell-based
Mtb [2] = settings: EBA study; cited from earlier work
[3] = system: Mtb gene clusters GC82 and GC120, iniBAC operon; settings: cited from earlier work
Mtb [4] = settings: cited from earlier work
Mtb [5] = settings: cited from earlier work; remark: listed apart in the source
Mtb [6] = settings: at its MIC and at doses used to treat adult pulmonary TB; cited from earlier work
[7] = PK evaluation on coadministration with second-line drugs; settings: mice, SQ109 and MXF coadministered
Mtb [8] = settings: cited from earlier work; remark: listed apart in the source
Mtb [9] = settings: cited from earlier work; remark: listed apart in the source
[10] = system: Mycobacterium tuberculosis H37Rv; settings: cited from earlier work
[11] = in vivo; cited from earlier work
Mtb [12] = settings: versus linezolid; cited from earlier work
Mtb [13] = settings: in vitro; cited from earlier work
Mtb [14] = settings: mouse model of TB; cited from earlier work
Mtb [15] = settings: cited from earlier work; remark: listed apart in the source

In the case of `CC(C)/N=c1\cc2n(-c3ccc(Cl)cc3)c3ccccc3nc-2cc1Nc1ccc(Cl)cc1` [CFZ, Clofazimine, reference compound], the MIC ([1]; Mycobacterium tuberculosis, H37RV, read-out: MIC Alone) is reported as 0.5 µg/mL and the “MIC Combination” value ([1]; checkerboard SQ109 + CFZ, Mtb H37Rv) is reported as 0.062 µg/mL.

In the case of `C[C@]1(COc2ccc(N3CCC(Oc4ccc(OC(F)(F)F)cc4)CC3)cc2)Cn2cc([N+](=O)[O-])nc2O1` [Delamanid], the early bactericidal activity (Mtb [2]) is listed as “showed activity”.

For `CC[C@@H](CO)NCCN[C@@H](CC)CO` [EMB, ethambutol], the “Activity on Mtb gene clusters GC82 and GC120” value [3] is given as “Upregulates”, the “MIC on Mtb” value (Mtb [4]) is given as 5 to 7 µg/mL and the “Effect on acid-fastness of Mtb” value (Mtb [5]) is given as “Decreases”. The bacteriostatic or bactericidal (Mtb [6]) was “bacteriostatic”.

In the case of `COc1c(N2C[C@@H]3CCCN[C@@H]3C2)c(F)cc2c(=O)c(C(=O)O)cn(C3CC3)c12` [MXF, moxifloxacin, reference compound], the “pharmacology profile on coadministration” value [7] is listed as “not affected” and the “activity in mouse models” value (Mtb [8]) is listed as “comparable to INH”.

In the case of `Cc1ncc([N+](=O)[O-])n1CCO` [Metronidazole], the “efficacy in mouse models of latent TB” value (Mtb [9]) is given as “not effective”.

In the case of `O=[N+]([O-])c1cn2c(n1)OC[C@@H](OCc1ccc(OC(F)(F)F)cc1)C2` [PA-824], the early bactericidal activity (Mtb [2]) is given as “showed activity”.

For `CO[C@H]1/C=C/O[C@@]2(C)Oc3c(C)c(O)c4c(O)c(c(/C=N/N5CCN(C)CC5)c(O)c4c3C2=O)NC(=O)/C(C)=C\C=C\[C@H](C)[C@H](O)[C@@H](C)[C@@H](O)[C@@H](C)[C@H](OC(C)=O)[C@@H]1C` [RIF, rifampicin, reference compound], the “improvement of RIF activity” value [10] is given as “eightfold”.

In the case of `CC(=O)NC[C@H]1CN(c2ccc(N3CCSCC3)c(F)c2)C(=O)O1` [Sutezolid], the safety profile [11] is listed as “improved safety profile compared with linezolid”, the “killing in ex vivo whole-blood culture test” value (Mtb [12]) is listed as “better time-dependent killing” and the “antimycobacterial activity versus linezolid” value (Mtb [13]) is listed as “better antimycobacterial activity”. For the same compound, the “antimycobacterial activity versus linezolid” value (Mtb [14]) was “better antimycobacterial activity”.

For `COc1nc2ccc(Br)cc2cc1[C@@H](c1ccccc1)[C@@](O)(CCN(C)C)c1cccc2ccccc12` [bedaquiline], the postantibiotic effect (Mtb [15]; bedaquiline with SQ109) is listed as 14 h, the postantibiotic effect (Mtb [15]; bedaquiline without SQ109) is listed as 9 h and the “improvement of the MIC of bedaquiline” value [10] is listed as “four- to eight-times”.

For `COc1c(N2CCNC(C)C2)c(F)cc2c(=O)c(C(=O)O)cn(C3CC3)c12` (stereo not drawn) [gatifloxacin], the “activity in mouse models” value (Mtb [8]) is given as “comparable to INH”.

For `CC(=O)NC[C@H]1CN(c2ccc(N3CCOCC3)c(F)c2)C(=O)O1` [linezolid], the early bactericidal activity (Mtb [2]) is given as “minimal killing activity”.
